# According to patent US10681909B2, “Herbicidal triazoles” (FMC Corporation, priority 2014, dated 2020):
# What was measured:
# Conditions in all cases: scale 0 to 100
# [1] = system: corn; assay: Test E preemergence; format: in vivo, Zea mays
# Excerpt: (§1) Seeds of plant species selected from corn (Zea mays), soybean (Glycine max), lambsquarters (Chenopodium album), poinsettia, wild (wild poinsettia, Euphorbia heterophylla), pigweed, palmer (palmer pigweed, Amaranthus palmeri), waterhemp (common waterhemp, Amaranthus rudis), surinam grass (Brachiaria decumbens), crabgrass, large (large crabgrass, Digitaria sanguinalis), crabgrass, Brazilian (Brazilian crabgrass, Digitaria horizontalis), panicum, fall (fall panicum, Panicum dichotomiflorum), foxtail, giant (giant foxtail, Setaria faberii), foxtail, green (green foxtail, Setaria viridis), goosegrass (Eleusine indica), johnsongrass (Sorghum halepense), ragweed (common ragweed, Ambrosia elatior), barnyardgrass (Echinochloa crus-galli), sandbur (southern sandbur, Cenchrus echinatus), arrowleaf sida (Sida rhombifolia), ryegrass, Italian (Italian ryegrass, Lolium multiflorum), dayflower, VA (Virginia dayflower, Commelina virginica), field bindweed (Convolvulus arvensis), cocklebur (common cocklebur, Xanthium strumarium), morningglory (Ipomoea coccinea), nightshade (eastern black nightshade, Solanum ptycanthum), kochia (Kochia scoparia), nutsedge, yellow (yellow nutsedge, Cyperus esculentus), smartweed (ladysthumb smartweed, Polygonum persicaria), velvetleaf (Abutilon theophrasti), horseweed (Conyza canadensis), and beggarticks (hairy beggarticks, Bidens pilosa), were planted into a silt loam soil and treated preemergence with test chemicals formulated in a non-phytotoxic solvent mixture which included a surfactant.
# (§2) At the same time, plants from these crop and weed species and also waterhemp_RES1, (ALS & Triazine resistant common waterhemp, Amaranthus rudis), and waterhemp_RES2, (ALS & HPPD resistant common waterhemp, Amaranthus rudis) were planted in pots containing Sunshine Redi-Earth® planting medium comprising spaghnum peat moss, vermiculite, starter nutrients and dolomitic limestone were treated with postemergence applications of test chemicals formulated in the same manner. Plants ranged in height from 2 to 18 cm for postemergence treatments (1- to 4-leaf stage). Treated plants and controls were maintained in a greenhouse for 14 to 21 d, after which time all species were compared to controls and visually evaluated. Plant response ratings, summarized in Table E, are based on a scale of 0 to 100 where 0 is no effect and 100 is complete control. A dash (-) response means no test result.
# [2] = system: lambsquarters; assay: Test E preemergence; format: in vivo, Chenopodium album
# Excerpt: as §1, §2
# [3] = system: crabgrass, large; assay: Test E preemergence; format: in vivo, Digitaria sanguinalis
# Excerpt: as §1, §2
# [4] = system: foxtail, green; assay: Test E preemergence; format: in vivo, Setaria viridis
# Excerpt: as §1, §2
# [5] = system: johnsongrass; assay: Test E preemergence; format: in vivo, Sorghum halepense
# Excerpt: as §1, §2
# [6] = system: sandbur; assay: Test E preemergence; format: in vivo, Cenchrus echinatus
# Excerpt: as §1, §2
# [7] = system: dayflower, VA; assay: Test E preemergence; format: in vivo, Commelina virginica
# Excerpt: as §1, §2
# [8] = system: field bindweed; assay: Test E preemergence; format: in vivo, Convolvulus arvensis
# Excerpt: as §1, §2
# [9] = system: nutsedge, yellow; assay: Test E preemergence; format: in vivo, Cyperus esculentus
# Excerpt: as §1, §2
# [10] = system: velvetleaf; assay: Test E preemergence; format: in vivo, Abutilon theophrasti
# Excerpt: as §1, §2
# [11] = system: waterhemp_RES1 (ALS & Triazine resistant common waterhemp); assay: Test E postemergence; format: in vivo, Amaranthus rudis
# Excerpt: as §1, §2
# [12] = system: waterhemp_RES2 (ALS & HPPD resistant common waterhemp); assay: Test E postemergence; format: in vivo, Amaranthus rudis
# Excerpt: as §1, §2
# [13] = system: waterhemp; assay: Test E postemergence; format: in vivo, Amaranthus rudis
# Excerpt: as §1, §2
# [14] = system: sandbur; assay: Test E postemergence; format: in vivo, Cenchrus echinatus
# Excerpt: as §1, §2
# [15] = system: arrowleaf sida; assay: Test E postemergence; format: in vivo, Sida rhombifolia
# Excerpt: as §1, §2
# [16] = system: ryegrass, Italian; assay: Test E postemergence; format: in vivo, Lolium multiflorum
# Excerpt: as §1, §2
# [17] = system: field bindweed; assay: Test E postemergence; format: in vivo, Convolvulus arvensis
# Excerpt: as §1, §2
# [18] = system: kochia; assay: Test E postemergence; format: in vivo, Kochia scoparia
# Excerpt: as §1, §2
# [19] = system: beggarticks; assay: Test E postemergence; format: in vivo, Bidens pilosa
# Excerpt: as §1, §2
compound,measurement,setting,value
CCOc1nc(-c2ccccc2)nn1Cc1ccnc(C(F)(F)F)c1 [Compound 27],Plant response rating,[1]; 16 g ai/ha,0
same,Plant response rating,[1]; 31 g ai/ha,0
same,Plant response rating,[1]; 62 g ai/ha,25
same,Plant response rating,[1]; 125 g ai/ha,50
same,Plant response rating,[2]; 16 g ai/ha,80
same,Plant response rating,[2]; 31 g ai/ha,100
same,Plant response rating,[2]; 62 g ai/ha,100
same,Plant response rating,[2]; 125 g ai/ha,100
same,Plant response rating,[3]; 16 g ai/ha,98
same,Plant response rating,[3]; 31 g ai/ha,100
same,Plant response rating,[3]; 62 g ai/ha,100
same,Plant response rating,[3]; 125 g ai/ha,100
same,Plant response rating,[4]; 16 g ai/ha,75
same,Plant response rating,[4]; 31 g ai/ha,100
same,Plant response rating,[4]; 62 g ai/ha,100
same,Plant response rating,[4]; 125 g ai/ha,100
same,Plant response rating,[5]; 16 g ai/ha,100
same,Plant response rating,[5]; 31 g ai/ha,95
same,Plant response rating,[5]; 62 g ai/ha,100
same,Plant response rating,[5]; 125 g ai/ha,100
same,Plant response rating,[6]; 16 g ai/ha,35
same,Plant response rating,[6]; 31 g ai/ha,35
same,Plant response rating,[6]; 62 g ai/ha,75
same,Plant response rating,[6]; 125 g ai/ha,98
same,Plant response rating,[7]; 16 g ai/ha,10
same,Plant response rating,[7]; 31 g ai/ha,10
same,Plant response rating,[7]; 62 g ai/ha,10
same,Plant response rating,[7]; 125 g ai/ha,50
same,Plant response rating,[8]; 16 g ai/ha,0
same,Plant response rating,[8]; 31 g ai/ha,0
same,Plant response rating,[8]; 62 g ai/ha,60
same,Plant response rating,[8]; 125 g ai/ha,90
same,Plant response rating,[9]; 16 g ai/ha,0
same,Plant response rating,[9]; 31 g ai/ha,0
same,Plant response rating,[9]; 62 g ai/ha,0
same,Plant response rating,[9]; 125 g ai/ha,15
same,Plant response rating,[10]; 16 g ai/ha,35
same,Plant response rating,[10]; 31 g ai/ha,50
same,Plant response rating,[10]; 62 g ai/ha,50
same,Plant response rating,[10]; 125 g ai/ha,95
same,Plant response rating,[11]; 16 g ai/ha,95
same,Plant response rating,[11]; 31 g ai/ha,95
same,Plant response rating,[11]; 62 g ai/ha,95
same,Plant response rating,[11]; 125 g ai/ha,98
same,Plant response rating,[12]; 16 g ai/ha,90
same,Plant response rating,[12]; 31 g ai/ha,95
same,Plant response rating,[12]; 62 g ai/ha,90
same,Plant response rating,[12]; 125 g ai/ha,90
same,Plant response rating,[13]; 16 g ai/ha,95
same,Plant response rating,[13]; 31 g ai/ha,98
same,Plant response rating,[13]; 62 g ai/ha,95
same,Plant response rating,[13]; 125 g ai/ha,95
same,Plant response rating,[14]; 16 g ai/ha,0
same,Plant response rating,[14]; 31 g ai/ha,20
same,Plant response rating,[14]; 62 g ai/ha,30
same,Plant response rating,[14]; 125 g ai/ha,30
same,Plant response rating,[15]; 16 g ai/ha,70
same,Plant response rating,[15]; 31 g ai/ha,80
same,Plant response rating,[15]; 62 g ai/ha,90
same,Plant response rating,[15]; 125 g ai/ha,100
same,Plant response rating,[16]; 16 g ai/ha,20
same,Plant response rating,[16]; 31 g ai/ha,30
same,Plant response rating,[16]; 62 g ai/ha,30
same,Plant response rating,[16]; 125 g ai/ha,40
same,Plant response rating,[17]; 16 g ai/ha,50
same,Plant response rating,[17]; 31 g ai/ha,60
same,Plant response rating,[17]; 62 g ai/ha,70
same,Plant response rating,[17]; 125 g ai/ha,80
same,Plant response rating,[18]; 16 g ai/ha,95
same,Plant response rating,[18]; 31 g ai/ha,100
same,Plant response rating,[18]; 62 g ai/ha,95
same,Plant response rating,[18]; 125 g ai/ha,95
same,Plant response rating,[19]; 16 g ai/ha,40
same,Plant response rating,[19]; 31 g ai/ha,50
same,Plant response rating,[19]; 62 g ai/ha,50
same,Plant response rating,[19]; 125 g ai/ha,55
COc1nc(-c2ccc(Cl)cc2)nn1Cc1ccnc(C(F)(F)F)c1 [Compound 28],Plant response rating,[11]; 31 g ai/ha,95
same,Plant response rating,[11]; 62 g ai/ha,95
same,Plant response rating,[11]; 125 g ai/ha,95
same,Plant response rating,[11]; 250 g ai/ha,95
same,Plant response rating,[12]; 31 g ai/ha,95
same,Plant response rating,[12]; 62 g ai/ha,90
same,Plant response rating,[12]; 125 g ai/ha,90
same,Plant response rating,[12]; 250 g ai/ha,95
same,Plant response rating,[13]; 31 g ai/ha,90
same,Plant response rating,[13]; 62 g ai/ha,90
same,Plant response rating,[13]; 125 g ai/ha,95
same,Plant response rating,[13]; 250 g ai/ha,95
same,Plant response rating,[14]; 31 g ai/ha,20
same,Plant response rating,[14]; 62 g ai/ha,30
same,Plant response rating,[14]; 125 g ai/ha,30
same,Plant response rating,[14]; 250 g ai/ha,40
same,Plant response rating,[15]; 31 g ai/ha,70
same,Plant response rating,[15]; 62 g ai/ha,80
same,Plant response rating,[15]; 125 g ai/ha,80
same,Plant response rating,[15]; 250 g ai/ha,75
same,Plant response rating,[16]; 31 g ai/ha,10
same,Plant response rating,[16]; 62 g ai/ha,20
same,Plant response rating,[16]; 125 g ai/ha,25
same,Plant response rating,[16]; 250 g ai/ha,30
same,Plant response rating,[17]; 31 g ai/ha,50
same,Plant response rating,[17]; 62 g ai/ha,75
same,Plant response rating,[17]; 125 g ai/ha,80
same,Plant response rating,[17]; 250 g ai/ha,80
same,Plant response rating,[18]; 31 g ai/ha,90
same,Plant response rating,[18]; 62 g ai/ha,95
same,Plant response rating,[18]; 125 g ai/ha,95
same,Plant response rating,[18]; 250 g ai/ha,95
same,Plant response rating,[19]; 31 g ai/ha,50
same,Plant response rating,[19]; 62 g ai/ha,60
same,Plant response rating,[19]; 125 g ai/ha,50
same,Plant response rating,[19]; 250 g ai/ha,60
